Test results taken from PubChem BioAssay AID1963832 (Molecular Pharmacology Branch, DTP, NCI, 2024).
Values joined by “and” are separate entries in the source; they are usually repeats but may differ in a detail not shown here. Equal entries are not always repeated.

Test system: 885724-159-R-J1-PDC complex spheroid viability
Assay: Anticancer human tumor 885724-159-R-J1-PDC patient-derived pancreatic adenocarcinoma cell line growth inhibition [POLQ]
Settings: for viability, T/C: stronger effect = lower value
Description: Multicellular complex tumor spheroid response to Polymerase (POL) inhibitors (novobiocin, ART-558, RP6685) in combination with a variety of drugs and investigational agents in selected tumor cell lines
The POL inhibitors (novobiocin, ART-558, and RP6685) were evaluated both individually and in combination with standard of care and investigational anticancer small molecules within a complex spheroid model of solid tumors. . Complex spheroids include a stromal component modeled by human endothelial cells (HUVEC) and fibroblasts modeled by human mesenchymal stem cells (MSCs). The concentration ranges selected for each drug and investigational agent were based upon clinically achievable concentrations if the clinical Cmax of the agent was known.
Compounds. The drugs and investigational agents: novobiocin (NSC847541), ART-558 (NSC835418), RP-6685 (NSC848927), peposertib (NSC802822), ceralasertib (NSC780249), elimusertib (NSC800525), camonsertib (NSC841442), AZD-1390 (NSC803789), olaparib (NSC753686), talazoparib (NSC767125), rucaparib (NSC756644), sotorasib (NSC818433), MRTX-1133 (NSC836407), SN-38 (NSC673596), topotecan (NSC609699), epotoside (NSC141540), doxorubicin (NSC123127), gemcitabine (NSC613327), 5-fluorouracil (NSC19893), paclitaxel (NSC125973), vemurafenib (NSC761431), MSA-2 (NSC828583), SN-011 (NSC837082), adavosertib (NSC754352), prexasertib (NSC758257), carboplatin (NSC241240) and oxaliplatin (NSC266046), were obtained from the National Cancer Institute (NCI) Developmental Therapeutics Program Chemical Repository (21). The FDA-approved anticancer drug set is available from the Developmental Therapeutics Program at https://dtp.cancer.gov/organization/dscb/obtaining/. […] The stock solutions were prepared in dimethyl sulfoxide (DMSO, Sigma-Aldrich, St. Louis, MO, cat. D2650), except for the platinum compounds which were prepared in saline (Quality Biological, Gaithersburg, MD, cat. 114-055-101), at 800-fold the tested concentration and stored at -70 degrees C prior to their use. All drugs and investigational agents were tested over a range starting from a high concentration at or near the clinical Cmax and decreasing in half-log increments. If the clinical Cmax for an agent had not been determined, the highest concentration tested was 10 microM, except for SN-38, which was tested at a high concentration of 1 microM.
Cell Culture. All cells were maintained in an incubator at 37 degrees C and 5% CO2 with 95% humidity. The PDC lines were cultured according to standard operating procedures established by the NCI PDMR (https://pdmr.cancer.gov). Table 3 of the manuscript, lists the cell lines along with the number of the three cell types plated to form the mct-spheroids and media for tumor cell growth. After thawing, all PDC lines, except 997537-175-T-J1-PDC and 415267-285-R-J2-PDC, were cultured in Matrigel-coated flasks prepared with a working solution of 1X Ham's F-12 nutrient mix, without supplementation (Thermo Fisher Scientific, cat. 11765054), 100 U/mL penicillin-streptomycin (Thermo Fisher Scientific, cat. 15140122), and 2.5% Matrigel (Corning Inc., Corning, NY, cat. 354248) for the first three passages. The two PDC lines 997537-175-T-J1-PDC and 415267-285-R-J2-PDC were cultured on uncoated flasks. The 857933-349-R-J2-PDC line was cultured in 6C/Colon 1B media containing advanced DMEM/F-12 (Thermo Fisher Scientific, cat. 12634028), 10 mM HEPES (Thermo Fisher Scientific, cat. 15630080), 1X GlutaMAX supplement (Thermo Fisher Scientific, cat. 35050061), 0.1 mg/mL primocin (InvivoGen, San Diego, CA, cat. ant-pm-2), 10% defined fetal bovine serum, heat inactivated (HyClone Laboratories Inc., Logan, UT, cat. SH30070.03HI), 50% L-WRN conditioned media (ATCC, cat. CRL-3276), 1.25 mM N-Acetyl-L-cysteine (Sigma-Aldrich, cat. A9165), 10 mM nicotinamide (Sigma-Aldrich, cat. N0636), 1X B-27 supplement (Thermo Fisher Scientific, cat. 17504044), 1X N-2 supplement (Thermo Fisher Scientific, cat. […]

[1] = compound alone, run of 11/27/2023
[2] = compound alone, run of 12/05/2023
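Also: spheroids exposed to compounds for 7 days.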

| SMILES | viability, T/C (compound 0.0316 µM) | viability, T/C (compound 0.1 µM) | viability, T/C (compound 0.316 µM) | viability, T/C (compound 1 µM) | viability, T/C (compound 3.16 µM) | viability, T/C (compound 10 µM) | IC50 (curve of compound) | IC50 [1] [µM] | viability, T/C (compound 0.00316 µM) | viability, T/C (compound 0.01 µM) | IC50 [2] [µM] | viability, T/C (compound 0.000316 µM) | viability, T/C (compound 0.001 µM) |
| --- | --- | --- | --- | --- | --- | --- | --- | --- | --- | --- | --- | --- | --- |
| CNCc1ccc(-c2[nH]c3cc(F)cc4c3c2CCNC4=O)cc1 | 109% and 96.8% and 102% | 102% and 92.6% and 112% | 88.9% and 91.8% and 107% | 87.8% and 98.4% and 99.9% | 89.9% and 93.1% and 107% | 93% and 91% and 83.8% | > 10 µM | – | – | – | – | – | – |
| COC1C(OC(N)=O)C(O)C(Oc2ccc3c(O)c(NC(=O)c4ccc(O)c(CC=C(C)C)c4)c(=O)oc3c2C)OC1(C)C (stereo not drawn) | 94.1% [middle of 13 runs] | 95.9% [middle of 13 runs] | 98.5% [middle of 13 runs] | 98.8% [middle of 12 runs] | 98.5% [middle of 13 runs] | 106% [middle of 13 runs] | – | > 10 | – | – | – | – | – |
| COc1cc(C2c3cc4c(cc3C(OC3OC5COC(C)OC5C(O)C3O)C3COC(=O)C23)OCO4)cc(OC)c1O (stereo not drawn) | 94.8% and 95.3% and 106% | 86.5% and 92.2% and 82.3% | 75.8% and 85.9% and 68.5% | 64.5% (2×) and 73% | 58.4% and 57.7% and 55.9% | 48% and 53.2% and 42.6% | 8.15 µM and > 10 µM and 4.59 µM | – | – | – | – | – | – |
| COc1cc2cc(C(=O)CCC(=O)O)sc2cc1OC | 102% and 90.8% and 94.2% | 96.9% and 97.3% and 92% | 98.9% and 97.8% and 108% | 96.4% and 105% and 95.9% | 103% and 99% and 107% | 94.9% and 89% and 90.3% | > 10 µM | – | – | – | – | – | – |
| COc1ccc([C@@H](O)c2cc(-c3ncnc4cc(N5CCOCC5)ccc34)c(F)cc2Cl)nn1 | 94% and 96% and 96.8% | 79.5% and 83.5% and 87.4% | 86.8% and 78% and 76% | 71.7% and 68.9% and 70.9% | 59% and 58.1% and 55% | 35.5% and 33% and 38.2% | 4.86 µM and 4.08 µM and 4.45 µM | – | – | – | – | – | – |
| COc1cccc(OCCCN)c1-c1cc(Nc2cnc(C#N)cn2)n[nH]1 | 45.3% and 44.2% and 49.7% | 42.2% and 45.4% and 51.1% | 44.9% and 42.6% and 47% | 44.4% and 47.1% and 48% | – | – | 0.00782 µM and 0.00969 µM and 0.0326 µM | – | 62.5% and 76.4% and 69.2% | 46.4% and 49.5% and 54.3% | – | – | – |
| COc1cccc2c1C(=O)c1c(O)c3c(c(O)c1C2=O)CC(O)(C(=O)CO)CC3OC1CC(N)C(O)C(C)O1 (stereo not drawn) | 72.9% and 74.1% and 66.6% | 54.6% and 56% and 97.5% | 30.8% and 36.2% and 31.9% | 11.2% and 13.3% and 8.99% | 5.6% and 5.49% and 5.32% | 7.5% and 6.14% and 6.82% | 0.128 µM and 0.146 µM and 0.209 µM | – | – | – | – | – | – |
| Cc1cccc(N(C)C(=O)C2C(O)CCN2c2nc(C)cc(C(F)(F)F)c2C#N)c1 (stereo not drawn) | 96.2% [middle of 13 runs] | 97.6% [middle of 13 runs] | 102% [middle of 13 runs] | 100% [middle of 13 runs] | 99.2% [middle of 13 runs] | – | – | > 10 | – | – | > 10 | – | – |
| Cn1ncnc1[C@H]1c2n[nH]c(=O)c3cc(F)cc(c23)N[C@@H]1c1ccc(F)cc1 | 97.7% and 93.4% and 103% | 83.7% and 84.4% and 85.2% | – | – | – | – | > 0.1 µM | – | 91.6% and 90.1% and 98.2% | 103% and 94.9% and 99.3% | – | 96.8% and 84.9% and 99.5% | 94.3% and 95.2% and 99.7% |
| Nc1ccc(C#CCN(C(=O)Cc2ncc(C(F)(F)F)cc2C(F)(F)F)c2ccc(F)cc2)nn1 | 94.8% [middle of 13 runs] | 93.2% [middle of 13 runs] | 97% [middle of 13 runs] | 96.2% [middle of 13 runs] | 97.6% [middle of 13 runs] | 105% [middle of 12 runs] | – | – | – | – | > 10 | – | – |
| Nc1ccn(C2OC(CO)C(O)C2(F)F)c(=O)n1 (stereo not drawn) | 62.8% and 66.8% and 60.1% | 51.6% and 57% and 53.9% | 50.6% and 51% and 51.5% | 51.7% and 53% (2×) | 51.6% and 53.4% and 54.6% | 46% and 42.3% and 39.7% | 0.56 µM and 1.16 µM and 4.38 µM | – | – | – | – | – | – |
| O=C(Nc1ccc(O)c(NS(=O)(=O)c2ccc(F)cc2)c1)c1ccc(-c2ccccc2)cc1 | 98% and 103% and 91.6% | 107% and 100% and 93.8% | 101% and 88.4% and 88.6% | 100% and 110% and 97.2% | 112% and 118% and 108% | 117% and 97.2% and 76% | > 10 µM | – | – | – | – | – | – |
| O=C(c1cc(Cc2n[nH]c(=O)c3ccccc23)ccc1F)N1CCN(C(=O)C2CC2)CC1 | 103% and 105% (2×) | 97.6% and 102% and 98% | 97.1% and 109% and 95.8% | 94% and 107% and 93.8% | 93.9% and 95.7% and 87.6% | 78.1% and 78.9% and 82.2% | > 10 µM | – | – | – | – | – | – |
| O=c1[nH]cc(F)c(=O)[nH]1 | 98.3% and 96.3% and 103% | 102% and 95.3% and 108% | 103% and 89.2% and 105% | 87.9% and 98.7% and 102% | 87.6% and 89.9% and 91.7% | 75% and 75.8% and 71.4% | > 10 µM | – | – | – | – | – | – |
